These results are taken from patent US11891365B2, “3-alkyl-4-amido-bicyclic [4,5,0] hydroxamic acids as HDAC inhibitors” (Valo Health, Inc., priority 2015, dated 2024).

Molecules are shown by their SMILES.

This assay deals with T1, Full length human recombinant HDAC6 protein (Homo sapiens, UniProt Q9UBN7).
T1 sequence (Q9UBN7 1-1215): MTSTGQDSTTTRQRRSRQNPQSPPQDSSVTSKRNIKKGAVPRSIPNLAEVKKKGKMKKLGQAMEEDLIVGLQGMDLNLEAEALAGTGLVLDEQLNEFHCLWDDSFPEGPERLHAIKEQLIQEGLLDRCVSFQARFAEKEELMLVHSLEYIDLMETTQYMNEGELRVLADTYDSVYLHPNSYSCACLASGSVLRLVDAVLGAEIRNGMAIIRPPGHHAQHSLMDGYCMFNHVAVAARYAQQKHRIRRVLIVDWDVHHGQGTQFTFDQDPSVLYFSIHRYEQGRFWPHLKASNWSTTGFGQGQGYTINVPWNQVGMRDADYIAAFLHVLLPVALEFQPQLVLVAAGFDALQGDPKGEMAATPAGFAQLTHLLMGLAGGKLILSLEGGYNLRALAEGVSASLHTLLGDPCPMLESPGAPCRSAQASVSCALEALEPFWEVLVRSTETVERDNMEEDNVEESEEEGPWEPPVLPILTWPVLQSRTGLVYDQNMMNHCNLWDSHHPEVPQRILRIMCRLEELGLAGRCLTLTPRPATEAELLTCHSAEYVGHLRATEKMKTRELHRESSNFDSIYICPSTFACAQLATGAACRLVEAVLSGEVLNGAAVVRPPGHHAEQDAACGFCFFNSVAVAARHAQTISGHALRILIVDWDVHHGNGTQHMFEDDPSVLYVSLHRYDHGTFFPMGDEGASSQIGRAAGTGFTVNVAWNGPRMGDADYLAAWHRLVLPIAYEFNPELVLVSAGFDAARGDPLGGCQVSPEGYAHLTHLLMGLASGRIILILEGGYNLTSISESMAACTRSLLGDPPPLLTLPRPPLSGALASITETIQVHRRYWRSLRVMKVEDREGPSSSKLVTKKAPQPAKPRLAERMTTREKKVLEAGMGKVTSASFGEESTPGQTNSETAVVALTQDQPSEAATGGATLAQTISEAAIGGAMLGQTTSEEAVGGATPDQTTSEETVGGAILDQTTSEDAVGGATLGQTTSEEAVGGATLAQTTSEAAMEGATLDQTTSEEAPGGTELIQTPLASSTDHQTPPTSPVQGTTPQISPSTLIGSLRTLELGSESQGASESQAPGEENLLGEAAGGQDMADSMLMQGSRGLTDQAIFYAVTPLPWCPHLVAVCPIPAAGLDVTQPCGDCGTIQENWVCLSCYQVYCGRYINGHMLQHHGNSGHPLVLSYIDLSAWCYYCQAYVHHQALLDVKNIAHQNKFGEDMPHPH
The assay can be described thus: In vitro histone deacetylase assay: enzymatic HDAC6 electrophoretic mobility shift assay. Format: biochemical. The following applies: 1 nM enzyme, 2 μM peptide substrate RHKK(Ac)-NH2, 25° C., 12 concentrations; read-out: Inhibitory Concentration (IC50) Values against HDAC6, Activity Range. The method, then:
The enzymatic HDAC6 assay was performed using electrophoretic mobility shift assay. […] The enzymatic reactions were assembled in 384 well plates in a total volume of 25 μL in a reaction buffer composing: 100 mM HEPES, pH7.5, 25 mM KCl, 0.1% bovine serum albumin, 0.01% Triton X-100, 1% DMSO (from compounds) 2 μM of the fluorescently labeled peptide substrate and enzyme. The enzyme was added at a final concentration of 1 nM. The peptide substrate RHKK(Ac)—NH2 was used. The compounds were tested at 12 concentrations spaced by 3× dilution intervals. Negative control samples ([…] in the absence of inhibitor) and positive control samples (100%-inhibition) were assembled in replicates of four in each assay plate. The reactions were incubated at 25° C. and quenched by the addition of 45 μL of termination buffer (100 mM HEPES, pH 7.5, 0.01% Triton X-100, 0.05% SDS).
The terminated assay plates were analyzed on LabChip® 3000 microfluidic electrophoresis instrument (Perkin Elmer/Caliper Life Sciences). The fluorescence intensity of the electrophoretically separated de-acetylated product and substrate peptide was measured. Activity in each sample was determined as the product to sum ratio (PSR): P/(S+P), where P is the peak height of the product peptide and S is the peak height of the substrate peptide. Percent inhibition (Pinh) is determined using the following equation:
Pinh=(PSR0%−PSRinh)/(PSR0%−PSR100%)*100, where PSRinh is the product sum ratio in the presence of inhibitor, PSR0% is the average product sum ration in the absence of inhibitor and PSR100% is the average product sum ratio in 100%-inhibition control samples. The IC50 values of inhibitors were determined by fitting the %-inhibition curves with 4 parameter dose-response model using XLfit 4 software.
A general note: Mobility shift assays separate free from complexed probe on a gel.

For `CCC1(C(=O)N2CCOc3cc(C(=O)NO)ccc3C2)COC1` [4-(3-ethyloxetane-3-carbonyl)-N-hydroxy-2,3,4,5-tetrahydrobenzo[f][1,4]oxazepine-8-carboxamide], the IC50 is not above 0.1 µM. Turning to `O=C(NO)c1ccc2c(c1)OCCN(C(=O)C1CCC(F)(F)CC1)C2` [4-(4,4-difluorocyclohexane-1-carbonyl)-N-hydroxy-2,3,4,5-tetrahydrobenzo[f][1,4]oxazepine-8-carboxamide], the IC50 is 0.1 to 0.5 µM.

For the compound `O=C(NO)c1ccc2c(c1)OCCN(C(=O)c1ccc(OC(F)F)cc1)C2` [4-(4-(difluoromethoxy)benzoyl)-N-hydroxy-2,3,4,5-tetrahydrobenzo[f][1,4]oxazepine-8-carboxamide], the IC50 was 0.1 to 0.5 µM.

Turning to `O=C(NO)c1ccc2c(c1)OCCN(C(=O)C1CC3CCC(C1)O3)C2` (centres unmarked) [4-(8-oxabicyclo[3.2.1]octane-3-carbonyl)-N-hydroxy-2,3,4,5-tetrahydrobenzo[f][1,4]oxazepine-8-carboxamide], the IC50 was not above 0.1 µM. `O=C(NO)c1ccc2c(c1)OCCN(C(=O)c1ccc3c(c1)OCO3)C2` [4-(benzo[d][1,3]dioxole-5-carbonyl)-N-hydroxy-2,3,4,5-tetrahydrobenzo[f][1,4]oxazepine-8-carboxamide]: the IC50 was not above 0.1 µM. For `O=C(NO)c1ccc2c(c1)OCCN(C(=O)c1ccc3occc3c1)C2` [4-(benzofuran-5-carbonyl)-N-hydroxy-2,3,4,5-tetrahydrobenzo[f][1,4]oxazepine-8-carboxamide], the IC50 lay in the range of 0.1 to 0.5 µM.

Take `O=C(NO)c1ccc2c(c1)OCCN(C(=O)C1Cc3ccccc31)C2` (centres unmarked) [4-(bicyclo[4.2.0]octa-1(6),2,4-triene-7-carbonyl)-N-hydroxy-2,3,4,5-tetrahydrobenzo[f][1,4]oxazepine-8-carboxamide]: the IC50 was not above 0.1 µM. Next, `O=C(NO)c1ccc2c(c1)OCCN(C(=O)C1CCC1)C2` [4-(cyclobutanecarbonyl)-N-hydroxy-2,3,4,5-tetrahydrobenzo[f][1,4]oxazepine-8-carboxamide]: not above 0.1 µM; `O=C(NO)c1ccc2c(c1)OCCN(C(=O)C1CCCCC1)C2` [4-(cyclohexanecarbonyl)-N-hydroxy-2,3,4,5-tetrahydrobenzo[f][1,4]oxazepine-8-carboxamide]: not above 0.1 µM; `O=C(NO)c1cnc2c(c1)OCCN(C(=O)C1CCCCC1)C2` [4-(cyclohexanecarbonyl)-N-hydroxy-2,3,4,5-tetrahydropyrido[2,3-f][1,4]oxazepine-8-carboxamide]: 0.1 to 0.5 µM. Turning to `O=C(NO)c1ccc2c(n1)OCCN(C(=O)C1CCCCC1)C2` [4-(cyclohexanecarbonyl)-N-hydroxy-2,3,4,5-tetrahydropyrido[3,2-f][1,4]oxazepine-8-carboxamide], the IC50 lay within 0.1 to 0.5 µM. As for `O=C1CN(C(=O)C2CCCCC2)Cc2cc(C(=O)NO)ccc2N1` [4-(cyclohexanecarbonyl)-N-hydroxy-2-oxo-2,3,4,5-tetrahydro-1H-benzo[e][1,4]diazepine-7-carboxamide], the IC50 was more than 0.5 µM. On to `O=C(NO)c1ccc2c(c1)OCCN(C(=O)C1CCCC1)C2` [4-(cyclopentanecarbonyl)-N-hydroxy-2,3,4,5-tetrahydrobenzo[f][1,4]oxazepine-8-carboxamide], for which the IC50 was not above 0.1 µM. For the compound `O=C(NO)c1ccc2c(c1)OCCN(C(=O)C1CC1)C2` [4-(cyclopropanecarbonyl)-N-hydroxy-2,3,4,5-tetrahydrobenzo[f][1,4]oxazepine-8-carboxamide], the IC50 fell in the range of 0.1 to 0.5 µM. Take `CC(=O)N1CCOc2cc(C(=O)NO)ccc2C1` [4-acetyl-N-hydroxy-2,3,4,5-tetrahydrobenzo[f][1,4]oxazepine-8-carboxamide]: the IC50 was not above 0.1 µM.

With `CC(=O)N1Cc2ccc(C(=O)NO)cc2OCC1(C)C` [4-acetyl-N-hydroxy-3,3-dimethyl-2,3,4,5-tetrahydrobenzo[f][1,4]oxazepine-8-carboxamide], the IC50 was 0.1 to 0.5 µM. For `O=C(NO)c1ccc2c(c1)OCCN(C(=O)c1ccccc1)C2` [4-benzoyl-N-hydroxy-2,3,4,5-tetrahydrobenzo[f][1,4]oxazepine-8-carboxamide], the IC50 was not above 0.1 µM.
